The values that follow come from patent US20240016150A1, “MIXTURES CONTAINING METARYLPICOXAMID” (BASF SE, priority 2020, published 2024).

Molecules are shown by their SMILES.

The subject of assay [1] is Phakopsora pachyrhizi. Put plainly: Greenhouse: curative control of soybean rust on soybeans. The format is in vivo. The conditions noted are these: single active, sprayed to run-off, soybean seedlings, assessed after 14 days. The method, then:
EXAMPLE 1—Curative control of soybean rust on soybeans caused by Phakopsora pachyrhizi
Leaves of potted soybean seedlings were inoculated with spores of Phakopsora pachyrhizi. To ensure the success of the artificial inoculation, the plants were transferred to a humid chamber with a relative humidity of about 95% and 20 to 24 ? C for 24 h. The next day the plants were cultivated for 2 days in a greenhouse chamber at 23-27 °C and a relative humidity between 60 and 80%. Then the plants were sprayed to run-off with the previously described spray solution, containing the concentration of active ingredient or their mixture as described below. The plants were allowed to air-dry. Then the trial plants were cultivated for 14 days in a greenhouse chamber at 23-27 °C and a relative humidity between 60 and 80%. The extent of fungal attack on the leaves was visually assessed as % diseased leaf area.
The disease ratings (or diseased leaf area) were converted into efficacies.
An efficacy of 0 means that the infection level of the treated plants corresponds to that of the untreated control plants; an efficacy of 100 means that the treated plants were not infected.
The expected efficacies of active compound mixtures were determined using Colby's formula [R.S. Colby, “Calculating synergistic and antagonistic responses of herbicide combinations”, Weeds 15, 20-22 (1967)] and compared with the observed efficacies.

In assay [2] the test system is Septoria tritici. Nature of the assay: Microtest: activity against leaf blotch on wheat. The format is cell-based. The conditions noted are these: single active, MTP, 405 nm, 7 days after inoculation. The method, then:
The active compounds were formulated separately as a stock solution having a concentration of 10000 ppm in dimethyl sulfoxide. The stock solutions were mixed according to the ratio, pipetted onto a micro titer plate (MTP) and diluted with water to the stated concentrations. EXAMPLE 1—Activity against leaf blotch on wheat caused by Septoria tritici A spore suspension of Septoria tritici in an aqueous biomalt or yeast-bactopeptone-glycerine or DOB solution was then added. The plates were placed in a water vapor-saturated chamber at a temperature of 18° C. Using an absorption photometer, the MTPs were measured at 405 nm 7 days after the inoculation. The measured parameters were compared to the growth of the active compound-free control variant (100%) and the fungus-free blank value to determine the relative growth in % of the pathogens in the respective active compounds. These percentages were converted into efficacies. An efficacy of 0 means that the growth level of the pathogens corresponds to that of the untreated control; an efficacy of 100 means that the pathogens were not growing. The expected efficacies of active compound mixtures were determined using Colby's formula [R.S. Colby, “Calculating synergistic and antagonistic responses of herbicide combinations”, Weeds 15, 20-22 (1967)] and compared with the observed efficacies.

Assay [3] deals with Alternaria solani. Put plainly: Microtest: activity against early blight. It is filed as cell-based. The conditions noted are these: single active, MTP, 405 nm, 7 days after inoculation. The method, then: The active compounds were formulated separately as a stock solution having a concentration of 10000 ppm in dimethyl sulfoxide. The stock solutions were mixed according to the ratio, pipetted onto a micro titer plate (MTP) and diluted with water to the stated concentrations. Example 2—Activity against early blight caused by Alternaria solani A spore suspension of Alternaria solani in an aqueous biomalt or yeast-bactopeptone-glycerine or DOB solution was then added. The plates were placed in a water vapor-saturated chamber at a temperature of 18° C. Using an absorption photometer, the MTPs were measured at 405 nm 7 days after the inoculation. The measured parameters were compared to the growth of the active compound-free control variant (100%) and the fungus-free blank value to determine the relative growth in % of the pathogens in the respective active compounds. These percentages were converted into efficacies. An efficacy of 0 means that the growth level of the pathogens corresponds to that of the untreated control; an efficacy of 100 means that the pathogens were not growing. The expected efficacies of active compound mixtures were determined using Colby's formula [R.S. Colby, “Calculating synergistic and antagonistic responses of herbicide combinations”, Weeds 15, 20-22 (1967)] and compared with the observed efficacies.

As for `CCC(=O)Oc1c(OC)ccnc1C(=O)N[C@@H](C)C(=O)O[C@@H](C)[C@@H](C)c1ccccc1C` [Compound I, [(1S,2S)-1-methyl-2-(o-tolyl)propyl] (2S)-2-[(4-methoxy-3-propanoyloxy-pyridine-2-carbonyl)amino]propanoate], the Observed efficacy stood at 18 in assay [1] (1 ppm), 56 in assay [2] (4 ppm) and 0 in assay [3] (1 ppm).
In the case of `CON(Cc1ccc(-c2noc(C(F)(F)F)n2)cc1)C(=O)C1CC1` [Compound II-1, N-methoxy-N-[[4-[5-(trifluoromethyl)-1,2 ,4-oxadiazol-3-yl]phenyl]methyl]cyclopropanecarboxamide], the Observed efficacy in assay [1] (0.25 ppm) is listed as 0; in assay [1] (1 ppm) it was 14; in assay [3] (0.016 ppm) it was 0.
Take `O=C(NC1CCC1c1ccc(Cl)cc1Cl)c1cccnc1C(F)(F)F` (centres unmarked) [Compound II-2, N-[2-(2,4-dichlorophenyl)cyclobutyl]-2-(trifluoromethyl)pyridine-3-carboxamide]: the Observed efficacy in assay [2] (0.063 ppm) came to 12; in assay [2] (0.25 ppm) it was 49.
